According to the kinase profiling compilation of Christmann-Franck et al. (2016):

Key:
Experiment in all cases: radiometric filter-binding kinase assay, Kinase HotSpot
Details in all cases: compound 0.5 µM; ATP 10 µM
[1] = biological target: ACVR1B (human) (UniProt P36896)
[2] = biological target: ADRBK1 (human) (UniProt P25098)
[3] = biological target: BRSK1 (human) (UniProt Q8TDC3)
[4] = biological target: CAMK1 (human) (UniProt Q14012)
[5] = biological target: CDC42BPA (human) (UniProt Q5VT25)
[6] = biological target: CDK2 CCNA2 (human) (UniProt P24941+P20248)
[7] = biological target: CDK6 CCND1 (human) (UniProt Q00534+P24385)
[8] = biological target: CLK3 (human) (UniProt P49761)
[9] = biological target: CSNK1G2 (human) (UniProt P78368)
[10] = biological target: DMPK (human) (UniProt Q09013)
[11] = biological target: DSTYK (human) (UniProt Q6XUX3)
[12] = biological target: DYRK3 (human) (UniProt O43781)
[13] = biological target: ERBB4 (human) (UniProt Q15303)
[14] = biological target: FGFR2 (human) (UniProt P21802)
Sequence of FGFR2 (human) (P21802 whole entry, looked up): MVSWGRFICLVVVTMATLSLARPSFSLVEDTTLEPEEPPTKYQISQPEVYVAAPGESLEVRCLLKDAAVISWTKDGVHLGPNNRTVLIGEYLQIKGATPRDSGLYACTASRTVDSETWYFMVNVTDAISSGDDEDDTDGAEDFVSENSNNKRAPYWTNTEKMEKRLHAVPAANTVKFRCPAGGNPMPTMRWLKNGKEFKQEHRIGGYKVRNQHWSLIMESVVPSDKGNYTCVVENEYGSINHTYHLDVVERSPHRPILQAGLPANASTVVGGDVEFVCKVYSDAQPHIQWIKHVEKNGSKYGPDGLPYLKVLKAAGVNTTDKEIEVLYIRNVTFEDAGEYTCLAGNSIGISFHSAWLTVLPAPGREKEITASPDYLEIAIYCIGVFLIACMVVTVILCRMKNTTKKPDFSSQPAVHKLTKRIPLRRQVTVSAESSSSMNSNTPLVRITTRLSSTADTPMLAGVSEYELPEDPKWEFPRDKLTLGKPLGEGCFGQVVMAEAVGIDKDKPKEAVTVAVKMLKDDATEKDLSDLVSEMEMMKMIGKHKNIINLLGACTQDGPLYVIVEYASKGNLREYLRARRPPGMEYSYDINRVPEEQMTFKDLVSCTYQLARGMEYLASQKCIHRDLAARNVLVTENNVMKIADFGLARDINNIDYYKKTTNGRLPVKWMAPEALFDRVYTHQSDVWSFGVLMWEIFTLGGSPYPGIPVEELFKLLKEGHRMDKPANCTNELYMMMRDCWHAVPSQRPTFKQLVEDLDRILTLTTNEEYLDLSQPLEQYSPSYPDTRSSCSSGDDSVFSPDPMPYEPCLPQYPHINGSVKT

[15] = biological target: FYN (human) (UniProt P06241)
[16] = biological target: GSK3B (human) (UniProt P49841)
[17] = biological target: IRAK1 (human) (UniProt P51617)
[18] = biological target: KIT (human) (UniProt P10721)
[19] = biological target: LRRK2 (human) (UniProt Q5S007)
[20] = biological target: MAP3K3 (human) (UniProt Q99759)
[21] = biological target: MAPK14 (human) (UniProt Q16539)
[22] = biological target: MST1R (human) (UniProt Q04912)
[23] = biological target: NEK1 (human) (UniProt Q96PY6)
Sequence of NEK1 (human) (Q96PY6 whole entry, looked up): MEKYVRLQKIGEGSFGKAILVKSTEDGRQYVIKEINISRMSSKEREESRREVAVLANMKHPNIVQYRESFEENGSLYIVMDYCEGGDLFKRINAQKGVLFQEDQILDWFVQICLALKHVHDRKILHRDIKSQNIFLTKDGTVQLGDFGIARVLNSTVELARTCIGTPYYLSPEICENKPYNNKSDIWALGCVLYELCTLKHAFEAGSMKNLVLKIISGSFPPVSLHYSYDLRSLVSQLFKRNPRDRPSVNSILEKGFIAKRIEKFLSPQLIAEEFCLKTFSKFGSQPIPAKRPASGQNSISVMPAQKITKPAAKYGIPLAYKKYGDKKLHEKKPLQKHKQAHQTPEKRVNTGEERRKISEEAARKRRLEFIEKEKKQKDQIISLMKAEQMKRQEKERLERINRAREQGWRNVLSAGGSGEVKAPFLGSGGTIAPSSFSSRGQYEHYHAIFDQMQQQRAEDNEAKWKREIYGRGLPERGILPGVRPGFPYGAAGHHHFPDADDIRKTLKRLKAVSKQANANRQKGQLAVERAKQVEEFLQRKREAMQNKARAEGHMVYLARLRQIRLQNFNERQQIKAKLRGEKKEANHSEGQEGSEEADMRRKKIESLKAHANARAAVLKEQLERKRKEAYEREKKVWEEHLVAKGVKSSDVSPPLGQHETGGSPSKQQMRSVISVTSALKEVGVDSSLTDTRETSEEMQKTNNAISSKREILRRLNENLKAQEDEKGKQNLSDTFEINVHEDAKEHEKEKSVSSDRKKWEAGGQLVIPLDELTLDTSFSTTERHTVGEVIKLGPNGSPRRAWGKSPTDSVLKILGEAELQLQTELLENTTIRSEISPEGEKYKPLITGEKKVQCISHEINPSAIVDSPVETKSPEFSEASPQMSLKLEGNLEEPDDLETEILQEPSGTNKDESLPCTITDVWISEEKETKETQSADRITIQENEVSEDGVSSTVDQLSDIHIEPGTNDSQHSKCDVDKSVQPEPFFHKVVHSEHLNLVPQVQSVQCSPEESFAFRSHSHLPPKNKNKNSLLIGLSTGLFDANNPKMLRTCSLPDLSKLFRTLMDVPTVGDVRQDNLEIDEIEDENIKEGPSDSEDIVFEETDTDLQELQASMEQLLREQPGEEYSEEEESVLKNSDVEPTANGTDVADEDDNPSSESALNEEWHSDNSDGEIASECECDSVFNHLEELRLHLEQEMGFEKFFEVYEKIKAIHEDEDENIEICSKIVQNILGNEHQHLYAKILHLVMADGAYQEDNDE

[24] = biological target: NEK2 (human) (UniProt P51955)
[25] = biological target: NLK (human) (UniProt Q9UBE8)
[26] = biological target: PAK3 (human) (UniProt O75914)
[27] = biological target: PBK (human) (UniProt Q96KB5)
[28] = biological target: PIM1 (human) (UniProt P11309)
[29] = biological target: PIM2 (human) (UniProt Q9P1W9)
[30] = biological target: PLK2 (human) (UniProt Q9NYY3)
[31] = biological target: PRKCB1 (human) (UniProt P05771)
Sequence of PRKCB1 (human) (P05771 whole entry, looked up): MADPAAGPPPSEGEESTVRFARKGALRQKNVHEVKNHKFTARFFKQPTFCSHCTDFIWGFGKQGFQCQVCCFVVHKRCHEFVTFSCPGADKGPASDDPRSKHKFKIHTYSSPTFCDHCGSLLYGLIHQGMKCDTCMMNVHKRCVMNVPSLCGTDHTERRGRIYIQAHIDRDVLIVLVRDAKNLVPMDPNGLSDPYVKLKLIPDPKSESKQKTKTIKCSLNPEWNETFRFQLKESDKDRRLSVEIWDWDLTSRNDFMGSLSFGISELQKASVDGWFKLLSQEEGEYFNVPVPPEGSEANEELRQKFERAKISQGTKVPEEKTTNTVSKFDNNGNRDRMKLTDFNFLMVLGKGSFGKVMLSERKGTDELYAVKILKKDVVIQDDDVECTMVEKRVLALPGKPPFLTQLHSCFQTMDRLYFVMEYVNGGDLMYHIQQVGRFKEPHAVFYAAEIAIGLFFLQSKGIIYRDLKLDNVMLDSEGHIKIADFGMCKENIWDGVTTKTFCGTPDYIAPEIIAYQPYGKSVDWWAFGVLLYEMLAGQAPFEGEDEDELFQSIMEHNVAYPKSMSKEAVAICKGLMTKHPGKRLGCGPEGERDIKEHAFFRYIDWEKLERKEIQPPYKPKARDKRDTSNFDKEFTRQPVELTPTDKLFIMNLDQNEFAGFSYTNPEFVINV

[32] = biological target: PRKCH (human) (UniProt P24723)
[33] = biological target: PRKCZ (human) (UniProt Q05513)
[34] = biological target: PRKD2 (human) (UniProt Q9BZL6)
[35] = biological target: RET (human) (UniProt P07949)
[36] = biological target: ROCK1 (human) (UniProt Q13464)
Sequence of ROCK1 (human) (Q13464 whole entry, looked up): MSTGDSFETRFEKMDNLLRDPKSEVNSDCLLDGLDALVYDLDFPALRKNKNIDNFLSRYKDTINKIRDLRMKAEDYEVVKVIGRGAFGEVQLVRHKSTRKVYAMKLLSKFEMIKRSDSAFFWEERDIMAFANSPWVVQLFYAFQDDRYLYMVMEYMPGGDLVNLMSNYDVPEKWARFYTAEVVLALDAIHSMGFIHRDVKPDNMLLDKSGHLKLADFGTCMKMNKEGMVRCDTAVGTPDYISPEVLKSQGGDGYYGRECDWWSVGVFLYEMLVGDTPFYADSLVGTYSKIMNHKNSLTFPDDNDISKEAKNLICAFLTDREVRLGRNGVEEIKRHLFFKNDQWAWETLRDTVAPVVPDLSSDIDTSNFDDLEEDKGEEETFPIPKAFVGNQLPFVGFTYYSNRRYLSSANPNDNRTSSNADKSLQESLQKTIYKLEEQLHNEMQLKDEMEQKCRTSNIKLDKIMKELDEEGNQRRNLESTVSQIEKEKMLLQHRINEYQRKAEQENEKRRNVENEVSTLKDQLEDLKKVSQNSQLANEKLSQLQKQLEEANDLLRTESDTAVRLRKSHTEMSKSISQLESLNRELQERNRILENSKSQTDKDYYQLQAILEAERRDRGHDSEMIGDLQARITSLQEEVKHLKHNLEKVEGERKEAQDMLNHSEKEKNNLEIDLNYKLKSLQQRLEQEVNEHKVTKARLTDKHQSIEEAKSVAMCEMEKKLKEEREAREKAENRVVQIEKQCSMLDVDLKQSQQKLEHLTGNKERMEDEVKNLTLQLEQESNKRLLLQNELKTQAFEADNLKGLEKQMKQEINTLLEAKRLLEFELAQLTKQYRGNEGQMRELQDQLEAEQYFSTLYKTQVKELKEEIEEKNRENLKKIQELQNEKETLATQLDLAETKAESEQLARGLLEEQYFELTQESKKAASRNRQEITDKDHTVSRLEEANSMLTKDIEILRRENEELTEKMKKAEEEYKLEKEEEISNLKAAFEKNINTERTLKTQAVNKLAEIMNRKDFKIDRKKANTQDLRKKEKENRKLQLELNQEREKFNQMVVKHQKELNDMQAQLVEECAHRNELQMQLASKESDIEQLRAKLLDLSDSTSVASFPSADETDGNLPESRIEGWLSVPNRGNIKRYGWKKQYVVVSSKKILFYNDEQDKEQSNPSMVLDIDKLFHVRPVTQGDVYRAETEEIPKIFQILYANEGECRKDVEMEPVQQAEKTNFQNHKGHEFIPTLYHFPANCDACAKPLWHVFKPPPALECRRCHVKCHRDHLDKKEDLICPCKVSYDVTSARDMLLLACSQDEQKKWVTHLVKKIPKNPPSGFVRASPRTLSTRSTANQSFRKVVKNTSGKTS

[37] = biological target: RPS6KA6 KD1 KD2 (human) (UniProt Q9UK32)
[38] = biological target: SGK3 (human) (UniProt Q96BR1)
[39] = biological target: STK11 (human) (UniProt Q15831)
[40] = biological target: STK25 (human) (UniProt O00506)
[41] = biological target: STK33 (human) (UniProt Q9BYT3)
[42] = biological target: TGFBR1 (human) (UniProt P36897)

Sequence of BRSK1 (human) (Q8TDC3 whole entry, looked up): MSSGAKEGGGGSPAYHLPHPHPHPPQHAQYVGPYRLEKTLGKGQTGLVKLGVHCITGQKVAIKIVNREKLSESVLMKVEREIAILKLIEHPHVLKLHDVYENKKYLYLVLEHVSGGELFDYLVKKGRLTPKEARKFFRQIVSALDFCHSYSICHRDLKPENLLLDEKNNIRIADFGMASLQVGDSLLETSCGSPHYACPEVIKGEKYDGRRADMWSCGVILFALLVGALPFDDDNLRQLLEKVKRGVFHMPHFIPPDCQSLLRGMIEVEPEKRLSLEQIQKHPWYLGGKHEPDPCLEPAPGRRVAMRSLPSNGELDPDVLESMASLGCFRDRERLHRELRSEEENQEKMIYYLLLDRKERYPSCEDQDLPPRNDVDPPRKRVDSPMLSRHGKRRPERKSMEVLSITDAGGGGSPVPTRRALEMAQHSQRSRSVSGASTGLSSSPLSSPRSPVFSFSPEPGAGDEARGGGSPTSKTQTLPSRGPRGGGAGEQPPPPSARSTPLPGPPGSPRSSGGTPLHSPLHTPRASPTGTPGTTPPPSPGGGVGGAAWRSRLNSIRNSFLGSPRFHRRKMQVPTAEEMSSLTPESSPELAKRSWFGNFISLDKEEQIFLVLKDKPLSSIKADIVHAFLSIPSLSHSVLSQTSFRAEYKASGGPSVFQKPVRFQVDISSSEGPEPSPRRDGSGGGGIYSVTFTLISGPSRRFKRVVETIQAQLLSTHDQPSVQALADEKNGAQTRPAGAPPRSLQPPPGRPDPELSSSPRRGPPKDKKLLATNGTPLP

COc1ccc(CNC(=O)Nc2ncc([N+](=O)[O-])s2)cc1
residual activity [1]: 102% | residual activity [2]: 96.4% | residual activity [3]: 102% | residual activity [4]: 101% | residual activity [5]: 93.7% | residual activity [6]: 93.3% | residual activity [7]: 98.6% | residual activity [8]: 93% | residual activity [9]: 100% | residual activity [10]: 101% | residual activity [11]: 96.2% | residual activity [12]: 105% | residual activity [13]: 95.2% | residual activity [14]: 97.4% | residual activity [15]: 102% | residual activity [16]: 40.2% | residual activity [17]: 108% | residual activity [18]: 103% | residual activity [19]: 87.7% | residual activity [20]: 87.6% | residual activity [21]: 104% | residual activity [22]: 98.4% | residual activity [23]: 94.3% | residual activity [24]: 99.1% | residual activity [25]: 102% | residual activity [26]: 94.6% | residual activity [27]: 110% | residual activity [28]: 104% | residual activity [29]: 94.5% | residual activity [30]: 104% | residual activity [31]: 103% | residual activity [32]: 64.1% | residual activity [33]: 96.3% | residual activity [34]: 97.3% | residual activity [35]: 97.9% | residual activity [36]: 102% | residual activity [37]: 99.8% | residual activity [38]: 96.9% | residual activity [39]: 100% | residual activity [40]: 98.6% | residual activity [41]: 100% | residual activity [42]: 95.8%

CN(C)C[C@H]1CCn2c(c(C3=C(c4cn(C)c5ccccc45)C(=O)NC3=O)c3ccccc32)C1
residual activity [1]: 98.2% | residual activity [2]: 103% | residual activity [3]: 101% | residual activity [4]: 105% | residual activity [5]: 98.1% | residual activity [6]: 76.2% | residual activity [7]: 70.5% | residual activity [8]: 94.7% | residual activity [9]: 97% | residual activity [10]: 106% | residual activity [11]: 89.4% | residual activity [12]: 102% | residual activity [13]: 84.3% | residual activity [14]: 104% | residual activity [15]: 92.8% | residual activity [16]: 11.2% | residual activity [17]: 127% | residual activity [18]: 92.7% | residual activity [19]: 93.1% | residual activity [20]: 86.1% | residual activity [21]: 108% | residual activity [22]: 98.3% | residual activity [23]: 105% | residual activity [24]: 106% | residual activity [25]: 101% | residual activity [26]: 102% | residual activity [27]: 101% | residual activity [28]: 63.2% | residual activity [29]: 102% | residual activity [30]: 99.9% | residual activity [31]: 3.71% | residual activity [32]: 7.84% | residual activity [33]: 31% | residual activity [34]: 97.6% | residual activity [35]: 99.7% | residual activity [36]: 106% | residual activity [37]: 2.94% | residual activity [38]: 95% | residual activity [39]: 91.9% | residual activity [40]: 96% | residual activity [41]: 94.8% | residual activity [42]: 99.8%

Oc1ccc(Nc2nc(-c3ccc(Cl)cc3)cs2)cc1
residual activity [1]: 89.5% | residual activity [2]: 100% | residual activity [3]: 102% | residual activity [4]: 111% | residual activity [5]: 87.1% | residual activity [6]: 98.6% | residual activity [7]: 101% | residual activity [8]: 92.6% | residual activity [9]: 91.8% | residual activity [10]: 102% | residual activity [11]: 104% | residual activity [12]: 101% | residual activity [13]: 83.3% | residual activity [14]: 104% | residual activity [15]: 102% | residual activity [16]: 110% | residual activity [17]: 123% | residual activity [18]: 92% | residual activity [19]: 98.7% | residual activity [20]: 101% | residual activity [21]: 98.6% | residual activity [22]: 92.5% | residual activity [23]: 104% | residual activity [24]: 110% | residual activity [25]: 101% | residual activity [26]: 124% | residual activity [27]: 100% | residual activity [28]: 103% | residual activity [29]: 106% | residual activity [30]: 105% | residual activity [31]: 101% | residual activity [32]: 96.3% | residual activity [33]: 105% | residual activity [34]: 102% | residual activity [35]: 99% | residual activity [36]: 103% | residual activity [37]: 117% | residual activity [38]: 98% | residual activity [39]: 91.1% | residual activity [40]: 113% | residual activity [41]: 97.5% | residual activity [42]: 99.9%

O=C(O)/C=C/c1cc(Br)c(Br)c(Br)c1Br
residual activity [1]: 103% | residual activity [2]: 97.9% | residual activity [3]: 80.5% | residual activity [4]: 105% | residual activity [5]: 98.5% | residual activity [6]: 85.6% | residual activity [7]: 102% | residual activity [8]: 96.1% | residual activity [9]: 90.1% | residual activity [10]: 103% | residual activity [11]: 98.2% | residual activity [12]: 100% | residual activity [13]: 104% | residual activity [14]: 99.5% | residual activity [15]: 97.9% | residual activity [16]: 105% | residual activity [17]: 94.4% | residual activity [18]: 89.2% | residual activity [19]: 87.6% | residual activity [20]: 105% | residual activity [21]: 99.5% | residual activity [22]: 87.1% | residual activity [23]: 85.4% | residual activity [24]: 92% | residual activity [25]: 99.1% | residual activity [26]: 100% | residual activity [27]: 96.2% | residual activity [28]: 16.2% | residual activity [29]: 52.8% | residual activity [30]: 51.5% | residual activity [31]: 95.5% | residual activity [32]: 83.7% | residual activity [33]: 89.2% | residual activity [34]: 71.6% | residual activity [35]: 76.4% | residual activity [36]: 97.6% | residual activity [37]: 86.9% | residual activity [38]: 85.7% | residual activity [39]: 42.8% | residual activity [40]: 87.2% | residual activity [41]: 67.9% | residual activity [42]: 90.8%
